According to patent US9409898B2, “Substituted pyrazole compounds as CRAC modulators” (LUPIN LIMITED, priority 2012, dated 2016):

System: IL-2 secretion
Assay: Inhibition of IL-2 secretion in PHA-stimulated Jurkat T cells (ELISA)
Format: cell-based
Conditions: Homo sapiens, PHA stimulation, 20 to 24 hours, IL-2 by ELISA
Method: The CRAC channel modulatory activity of the compounds were thus evaluated by measuring the secretion of IL-2 by antigen stimulated T-cells in vitro. Alternatively, such activity can also be evaluated by assay methods known to one skilled in the art.
Inhibition of IL-2 secretion: Jurkat T cells were seeded at a density of 0.5 to 1 million cells per well in RPMI medium. Test compounds from this invention were added to the cells at different concentrations. This was followed by the addition of PHA, a T cell mitogen after 10 minutes. The cells were then incubated for 20 to 24 hours in a CO2 incubator at 37° C. After incubation with the compounds, cells were centrifuged, the supernatant was collected and processed for ELISA to quantitate the amount of IL-2 secreted. A commercial ELISA kit (R&D Systems, Inc. Minneapolis, Minn., USA) was used to estimate the IL-2 concentrations. Amount of IL-2 secreted by cells stimulated with PHA was considered as a 100% maximal signal and the decrease in amount of IL-2 secreted by cells treated with the test compounds was expressed as percent inhibition of the maximal signal. The dose response data was analyzed using 4-parametric sigmoidal dose response (variable slope) curve—fit.

IC50	Structure (SMILES)
> 1 µM	Cn1nc(-c2cc(C(F)F)nn2-c2ccc(NCc3c(F)cccc3F)cn2)oc1=O [Example 13, 5-(1-(5-((2,6-Difluorobenzyl)amino)pyridin-2-yl)-3-(difluoromethyl)-1H-pyrazol-5-yl)-3-methyl-1,3,4-oxadiazol-2(3H)-one]
> 1 µM	Cn1nc(-c2cc(C(F)F)nn2-c2ccc(NC(=O)c3c(F)cccc3F)cn2)oc1=O [Example 4, N-(6-(3-(Difluoromethyl)-5-(4-methyl-5-oxo-4,5-dihydro-1,3,4-oxadiazol-2-yl)-1H-pyrazol-1-yl)pyridin-3-yl)-2,6-difluorobenzamide]
0.1 to 1 µM	Cn1nc(-c2cc(C(F)(F)F)n(-c3ccc(NC(=O)c4ccc5ccccc5c4)nc3)n2)oc1=O [Example 50, N-(5-(3-(4-Methyl-5-oxo-4,5-dihydro-1,3,4-oxadiazol-2-yl)-5-(trifluoromethyl)-1H-pyrazol-1-yl)pyridin-2-yl)-2-naphthamide]
< 0.1 µM	Cn1nc(-c2cc(C(F)(F)F)n(-c3ccc(NC(=O)c4c(F)cccc4Cl)nc3)n2)oc1=O [Example 39, 2-Chloro-6-fluoro-N-(5-(3-(4-methyl-5-oxo-4,5-dihydro-1,3,4-oxadiazol-2-yl)-5-(trifluoromethyl)-1H-pyrazol-1-yl)pyridin-2-yl)benzamide]
